Results reported in patent US20210069230A1, “SYNERGISTIC DRUG COMBINATIONS PREDICTED FROM GENOMIC FEATURES AND SINGLE-AGENT RESPONSE PROFILES” (THE BROAD INSTITUTE, INC., priority 2018, published 2021).

How the values were obtained:
KMRC3 cells = assay: IncuCyte live-cell microscopy of cellular proliferation; format: cell-based
Experimental: (§1) Cell lines were taken from viably frozen stocks of the same original provenance as for CTRP and DepMap data, with identity confirmed by SNP-based DNA fingerprinting as described previously (12, 13, 39). Cell lines were propagated using the same media and culture conditions as for CTRPv2.0 experiments. […] For live-cell imaging, cells were plated into clear-bottom plates (Corning) and imaged on an IncuCyte S3 throughout the course of the experiment. For CellTiter-Glo experiments, the initial viability of a subset of plated cells was established at the same time as compound addition using CellTiter-Glo as described previously (24). […] DMSO- and D0-normalized concentration-response curves were generated using four-parameter nonlinear regression using the drc package in R (40). Biphasic curves were also fit and prioritized relative to standard four-parameter curves where appropriate using the BIC (Bayesian information criteria) metric. […] General-purpose optimization (Nelder-Mean algorithm) was used for single-agent fits, and the “model” option was used to predict variance. Overall significance was assessed using the bootstrapped meanR test (n=1000 iterations), and per-concentration significance using maxR, as described by the package authors.

[1] = cited from earlier work
[2] = test system: ATF4/metallothionein/ER stress; conditions: cited from earlier work
HEC1A and SUIT2 cells = assay: CRISPR-Cas9 knockout of MGLL, GSK-J4 sensitivity; format: cell-based; conditions: 4 different sgRNAs
Experimental: Cas9 stably-infected HEC1A, MEWO, SUIT2, and WM2664 cells and sgRNAs (pXPR_BRD003 vector) targeting AIFM2, IRS2, MGLL, or control guides (non-cutting) were acquired from the GPP (FIG. 23). Cell line identities were confirmed to match parental cells using SNP fingerprinting. Virus was generated and infection carried out as described above. After puromycin selection (3 μg/mL for MEWO, 1.5 μg/mL for WM2664, 2 μg/mL for SUIT2 and HEC1A), cells were seeded in 384-well plates for compound treatment or harvested for Western blotting as described above.
Further, MGLL knockout in HEC1A cells was rescued by overexpression of MGLL when using an sgRNA that targeted MGLL across an intron-exon boundary and that therefore could not cut the MGLL ORF.

G402 cells = assay: Overexpression of MGLL WT or enzyme-dead MGLL S132A, GSK-J4 sensitivity; format: cell-based
Experimental: Cell lines were taken from viably frozen stocks of the same original provenance as for CTRP and DepMap data, with identity confirmed by SNP-based DNA fingerprinting as described previously (12, 13, 39). Cell lines were propagated using the same media and culture conditions as for CTRPv2.0 experiments. For drug-treatment assays, 1000 cells per well were plated into 30 or […], of media in 384-well plates. For live-cell imaging, cells were plated into clear-bottom plates (Corning) and imaged on an IncuCyte S3 throughout the course of the experiment. For CellTiter-Glo experiments, the initial viability of a subset of plated cells was established at the same time as compound addition using CellTiter-Glo as described previously (24). Remaining cells were exposed to compounds and/or vehicle (constant DMSO volume) using a Tecan D300e Digital Dispenser, and CellTiter-Glo was added 72 hours later. DMSO- and D0-normalized concentration-response curves were generated using four-parameter nonlinear regression using the drc package in R (40). […] For calculation of drug combination effects, curves were fit and deviation from the null model (Loewe additivity) assessed using the BIGL package in R (reference: PMID 29263342) (41). […] Overall significance was assessed using the bootstrapped meanR test (n=1000 iterations), and per-concentration significance using maxR, as described by the package authors. […]

MGLL = MGLL (Homo sapiens, UniProt Q99685); assay: Recombinant protein/mass spec assay of MGLL-mediated modification; format: biochemical
Sequence of MGLL (Q99685 whole entry): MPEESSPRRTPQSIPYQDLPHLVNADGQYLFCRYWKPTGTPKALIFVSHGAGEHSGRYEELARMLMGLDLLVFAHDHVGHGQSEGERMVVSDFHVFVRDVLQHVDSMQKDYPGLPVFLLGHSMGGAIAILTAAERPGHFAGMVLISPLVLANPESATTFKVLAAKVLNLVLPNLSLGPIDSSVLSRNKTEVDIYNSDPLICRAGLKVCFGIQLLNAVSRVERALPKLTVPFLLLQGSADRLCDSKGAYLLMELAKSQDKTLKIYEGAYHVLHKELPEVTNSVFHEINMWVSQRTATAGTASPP
Text: The GSK-J4-modifying impact of MGLL is examined further via a recombinant protein/mass spec assay.

[3] = test system: G402 and CJM cells overexpressing MGLL; assay: Lentiviral ORF overexpression, compound sensitivity (CellTiter-Glo, GR); format: cell-based; conditions: 72 hours
Experimental: as §1
Infection and selection were carried out according to GPP Viral Infection protocols, followed by cell seeding in 384-well plates for compound treatment or harvesting for Western blotting as described above.
Parental cell lines were virally transduced with cDNAs that constitutively overexpressed BCL2L1, AIFM2, or MGLL (in G402 and CJM cells); ABCB1 or MGMT (in WM2664 cells); SLC7A11 (in BT12 and G402 cells); MCL1 (in HCC1500 cells); or IRS2 (in T47D cells) and subsequently drug sensitivity was measured. To account for potential differences in growth rates and to distinguish between cytostatic and cytotoxic drug responses, the normalized growth rate inhibition (GR) metric was used to assess cell viability (FIG. 3A) (18).

CCOC(=O)CCNc1cc(N2CCc3ccccc3CC2)nc(-c2ccccn2)n1 [GSK-J4]
rescue of proliferation effects by MGLL (KMRC3 cells): durably rescued | time at which effects on cell proliferation were observed (KMRC3 cells): ≤ 12 h | cellular permeability [1]: high cellular permeability | time to induction of ATF4/metallothionein/ER stress [2]: ≤ 6 h | effect of knockout of MGLL on response (HEC1A and SUIT2 cells): sensitize | sensitivity of MGLL S132A overexpressing cells versus parental or control-infected cells (G402 cells; MGLL S132A): equally sensitive | effect of MGLL WT overexpression (G402 cells; MGLL WT): significant resistance | MGLL-mediated modification (MGLL): confirmed | shift in GR50 conferred by MGLL overexpression [3]: 20 fold
